Counter-ions that a name gives are not always drawn. Like-named read-outs stand apart in the source and are kept apart here.
Tests used:
[1] = molecular target: Alpha-Synuclein Protofibril binding to heparin (HS-GAG) (Homo sapiens, UniProt P37840); assay: Inhibition of alpha-synuclein protofibril binding to immobilized heparin-BSA (ELISA); design: species or system porcine; conditions: for inhibition at 30 µM: read-out: Alpha-Synuclein/Heparin Activity (% inhibition class)
Method: (§1) Porcine intestinal mucosa heparin conjugated to Bovine Serum Albumin (Heparin-BSA) was prepared as described (Najjam, S. et al. 1997, Cytokine 12, 1013-1022). Heparin is a sulfated HS-GAG and is commonly used as a HS-GAG in biochemical and binding assays (Lindahl, U. and Kjellen, L. (2013) ibid). Heparin-BSA at 0.01 mg/ml in Phosphate Buffered Saline (PBS; pH 7.4) was added to a 96 well polystyrene ELISA plate (NUNC Cat. No. 449824; 100 μl per well) and incubated Over Night (ON) at 4 degrees Celsius. For negative controls, ELISA plates were coated with BSA instead of Heparin-BSA, using the same procedure. Following the incubation, the plate was washed consecutively, by immersion, with de-ionized water and PBS (pH 7.4). The ELISA plate was then blocked with nonfat milk (2%, 200 μl per well) for 2 hours at Room Temperature (RT) with gentle shaking. Following blocking, the plate was washed with de-ionized water then PBS (pH 7.4). GBAPs were dissolved and diluted in PBS (pH 6.5, supplemented with 0.1% BSA) at desired concentrations, added to the ELISA plates containing immobilized Heparin-BSA (100 μl per well) and incubated for 2 hours at RT with gentle shaking. Following incubation, the plate was washed with de-ionized water and three times with PBS (pH 6.5) plus Tween. Bound GBAP was detected by a monoclonal antibody specific for that GBAP, followed by incubation with secondary antibody conjugated to horseradish peroxidase (HRP). Antibody was diluted in PBS (pH 6.5 supplemented with 1% BSA). Following each incubation with antibody, the plate was washed with de-ionized water and three times with PBS (pH 6.5) wash buffer containing 0.1% Tween. The peroxidase substrate chromogen, TMB (Dako Cat. No. S1599) was added (100 μl per well) to the ELISA plate and incubated at room temperature. After 5 minutes ELISA Stop Solution (hydrochloric acid 1N, sulfuric acid 3N) was added (100 μl per well) to stop the peroxidase catalyzed colorimetric reaction. The Optical Density of the samples was measured at 450 nm using an ELISA plate reader (BioTek Synergy H1). Following color development, the % inhibition compared to control (BSA-coated plates) was determined. IC-50s were calculated using GraphPad Prism software.
The assay was performed as described in Example 43, with the following modifications. Following to coating the plates with Heparin-BSA, plates were washed as described. The compounds were dissolved in DMSO at 10 mM final concentration and further diluted prior to assay. DMSO concentration in the screening well was up to […]. Individual compounds were co-incubated with alpha-synuclein on plates containing immobilized heparin. Alpha-synuclein purchased from rPeptide (Cat. No. S1001) was used to prepare protofibrils as described in Ihse et al., 2017. Alpha-synuclein was dissolved in PBS (pH7.4) to a concentration of 140 μM (˜2 mg/ml), and incubated for 7 days at 37° C. with rotary agitation (400 rpm). Resulting fibrils were sonicated for 10 minutes in ultrasonic water bath, quickly frozen and kept in aliquots at −80 degrees Celsius. Protofibrillar alpha-synuclein diluted in PBS (pH 6.5, supplemented with BSA, 0.1%) was added to the ELISA plate (100 μl per well) and incubated for 2 hours at RT with gentle shaking. Following the incubation, the plate was washed with de-ionized water and three times with PBS (pH 6.5) plus Tween. Bound Alpha-synuclein was detected by Anti-Alpha-synuclein Monoclonal Antibody 211 (Santa Cruz Cat. No. sc-12767), followed by secondary anti-IgG antibody conjugated to HRP (R&D System, Cat. No. HAF007). Following to color development with TMB, as described in Example 43, the Optical Density of the samples was measured at 450 nm using an ELISA plate reader. Following color development, the % inhibition compared to control (no compound, DMSO control) for every compound was determined.
An example of inhibition curve is shown in FIG. 1 for Inhibitor Compounds 22 and 24. […]

[2] = molecular target: T1, SAA binding to heparin (HS-GAG) (Homo sapiens, UniProt P0DJI8); assay: Inhibition of SAA binding to immobilized heparin-BSA (ELISA); design: species or system porcine
T1 sequence (P0DJI8 19-122): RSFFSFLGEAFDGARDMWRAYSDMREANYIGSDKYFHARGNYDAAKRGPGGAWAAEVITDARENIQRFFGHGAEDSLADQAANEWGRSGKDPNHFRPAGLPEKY
Method: as §1
The assay was performed as described in Example 43, with the following modifications. Following to coating the plates with Heparin-BSA, plates were washed as described. The compounds were dissolved in DMSO at 10 mM final concentration and further diluted prior to assay. DMSO concentration in the screening well was up to 2%. Individual compounds were co-incubated with SAA on plates containing immobilized heparin. Serum amyloid A (SAA) from PeProtech (NJ, USA, Cat. No. 300-53) was dissolved in DMSO, quickly frozen and kept in aliquots at −80 degrees Celsius. SAA dissolved in Tris buffer (pH 6.5, supplemented with BSA, 0.1%) was added to the ELISA plate (100 μl per well) and incubated for 2 hours at RT with gentle shaking. Following the incubation, the plate was washed with de-ionized water and three times with Tris Buffered Saline (TBS, pH 6.5) plus Tween. Bound SAA was detected by Anti-SAA Monoclonal Antibody (R&D System Cat. No. MAB30192), followed by secondary anti-IgG antibody conjugated to HRP (R&D System, Cat. No. HAF007). Antibody was diluted in TBS antibody buffer (pH6.5 supplemented with 1% BSA). Following each incubation with antibody, the plate was washed with de-ionized water and three times with TBS (pH6.5) wash buffer containing 0.1% Tween. Following to color development with TMB, as described in Example 43, the Optical Density of the samples was measured at 450 nm using an ELISA plate reader. Following color development, the % inhibition compared to control (no compound, DMSO control) for every compound was determined.
As described in Example 43, Heparin in the form of Heparin-BSA conjugate is used as a source of HS-GAG. For each compound IC-50 value in SAA—heparin-BSA binding assay is shown in μM (micromolar). […]

[3] = Alpha-Synuclein/Heparin Activity (IC-50), alpha-synuclein protofibrils, heparin-BSA
[4] = read-out: Serum Amyloid A/Heparin Activity (IC-50); SAA, heparin-BSA
[5] = read-out: Serum Amyloid A/Heparin Activity (% inhibition class)
[6] = 30 μM compound; SAA, heparin-BSA; read-out: Serum Amyloid A/Heparin Activity (% inhibition class)
[7] = alpha-synuclein protofibrils, heparin-BSA, read-out: Alpha-Synuclein/Heparin Activity (IC-50)
[8] = SAA, heparin-BSA; read-out: Serum Amyloid A/Heparin Activity (IC-50)

Question: How did the IC50 [1, 3] turn out when `C/C(=N\Nc1ncnc2cc(Cl)ccc12)c1ccc(-n2cnc(C)c2C)nc1` [Compound 16, 7-chloro-4-(2-(1-(6-(4,5-dimethyl-1H-imidazol-1-yl)pyridin-3-yl)ethylidene)hydrazineyl)quinazoline phosphate] was run?
Answer: 3.21 µM

Question: And the IC50 [2, 4]?
Answer: 13.9 µM

Question: Which inhibition at 30 µM [1] does the source give for `COc1cc2nccc(NN=Cc3ccc(-n4ccnc4)c(C)c3)c2cc1OC` [Compound 11, 4-(2-(4-(1H-imidazol-1-yl)-3-methylbenzylidene)hydrazineyl)-6,7-dimethoxyquinoline hydrochloride] here?
Answer: < 30%

Question: What about the inhibition at 30 µM [2, 5] of the same compound?
Answer: < 30%

Question: Which inhibition at 30 µM ([1]; 30 μM compound, alpha-synuclein protofibrils, heparin-BSA) does the source give for `C[N+](C)(C)Cc1ccc(/C=N\Nc2ccnc3ccc(Cl)cc23)cc1` [Compound 4, (Z)-1-(4-((2-(6-chloroquinolin-4-yl)hydrazineylidene)methyl)phenyl)—N,N,N-trimethylmethanaminium iodide] here?
Answer: > 30%

Question: And the inhibition at 30 µM [2, 6]?
Answer: < 30%

Question: What does the source list for `COc1cc2nccc(N/N=C/c3ccc(-n4ccnc4)c(OC)c3)c2cc1OC` [Compound 13, (E)-4-(2-(4-(1H-imidazol-1-yl)-3-methoxybenzylidene)hydrazineyl)-6,7-dimethoxyquinoline phosphate]?
Answer: IC50 [1, 3]: 35.2 µM; inhibition at 30 µM [2, 5]: < 30%

Question: Which results are given for `CCN1CCN(c2ccc(Nc3ccnc4cc5ccccc5cc34)cc2)CC1` [Compound 39, N-(4-(4-ethylpiperazin-1-yl)phenyl)benzo[g]quinolin-4-amine]?
Answer: IC50 [1, 3]: 3.39 µM; inhibition at 30 µM [2, 6]: > 30%

Question: Which results are given for `C/C(=N\Nc1ncnc2cc(Cl)ccc12)c1ccc(-n2cc[n+](C)c2)nc1` [Compound 17, (E)-1-(5-(1-(2-(7-chloroquinazolin-4-yl)hydrazineylidene)ethyl)pyridin-2-yl)-3-methyl-1H-imidazol-3-ium iodide phosphoric acid salt]?
Answer: IC50 [1, 3]: 13.5 µM; IC50 [2, 4]: 34.9 µM

Question: How did the inhibition at 30 µM [1] turn out when `C/C(=N\Nc1ncnc2ccccc12)c1ccc(-n2cc(C)nc2C)nc1` [Compound 19, (E)-4-(2-(1-(6-(2,4-dimethyl-1H-imidazol-1-yl)pyridin-3-yl)ethylidene)hydrazineyl)quinazoline] was run?
Answer: < 30%

Question: What about the IC50 [2, 4] of the same compound?
Answer: 8.59 µM

Question: `C/C(=N\Nc1nncc2cc(Cl)ccc12)c1ccc(-n2cc(C)nc2C)nc1` [Compound 24, (E)-6-chloro-1-(2-(1-(6-(2,4-dimethyl-1H-imidazol-1-yl)pyridin-3-yl)ethylidene)hydrazineyl)phthalazine] was tested. Which IC50 [1, 7] did it give?
Answer: 6.44 µM

Question: And the IC50 [2, 8]?
Answer: 7.89 µM

Question: For `CC(=NNc1ncnc2cc(Cl)ccc12)c1ccnc(-n2cnc(C)c2C)c1` [Compound 28, 7-chloro-4-(2-(1-(2-(4,5-dimethyl-1H-imidazol-1-yl)pyridin-4-yl)ethylidene)hydrazineyl)quinazoline], which IC50 [1, 7] is on record?
Answer: 3.23 µM

Question: And the IC50 [2, 8]?
Answer: 8.78 µM

Question: Which IC50 [1, 3] does the source give for `Cc1ncn(-c2ccc(/C=N\Nc3ncnc4cc(Cl)ccc34)cn2)c1C` [Compound 15, 7-chloro-4-(2-((6-(4,5-dimethyl-1H-imidazol-1-yl)pyridin-3-yl)methylene)hydrazineyl)quinazoline hydrochloride] here?
Answer: 5.22 µM

Question: And the IC50 [2, 4]?
Answer: 12.3 µM

Question: With `CN1CCN(Cc2ccc(/C=N/Nc3ccnc4cc(Cl)ccc34)cc2)CC1` [Compound 7, (E)-7-chloro-4-(2-(4-((4-methylpiperazin-1-yl)methyl)benzylidene)hydrazinyl)quinolone] as the compound, how does the IC50 [1, 3] read?
Answer: 1.41 µM

Question: What about the inhibition at 30 µM [2, 6] of the same compound?
Answer: > 30%

— patent US20240398783A1, “Compounds and Pharmaceutical Compositions Comprising Inhibitors of Amyloid Peptide Interactions with Glycosaminoglycans, Methods of Treatment and Use Thereof” (Gismo Therapeutics, Inc., priority 2021, published 2024)
